Experiment [1] concerns MYB mRNA. The experiment is described as follows: Splicing RT-qPCR assay, MYB canonical (CJ) and alternative (AJ) junction mRNA. It counts as cell-based, human. The note with it: Homo sapiens; for pIC50: canonical junction mRNA; for AC50: alternative junction mRNA, read-out: MYB AJ (AC50, increase in AJ mRNA). Put shortly:
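A673 or K562 cells were treated for 24 h at 37 °C with an 11-point 3-fold compound dilution series (top final 10 uM, DMSO ≤0.25%). Lysates then went to one-step TaqMan RT-qPCR quantifying canonical (CJ) and alternative-exon (AJ) junction transcripts, normalized to a housekeeping gene.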
(In general: Quantitative PCR measures a nucleic acid by following its amplification.)

For experiment [2], the system named is HiBiT-tagged MYB protein. In words: HiBiT protein abundance assay, MYB (K562 HiBiT knock-in). Format: cell-based, human. The conditions noted are these: HiBiT knock-in cells, 24 hours. Put shortly: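 Endogenously HiBiT-tagged K562 knock-in lines treated 24 h at 37 °C with 10-point 3-fold dilutions (top 10 μM final, DMSO ≤0.25%) in IMDM+1% FBS. Lytic Nano-Glo luminescence normalized to DMSO and unmodified K562 controls; four-parameter fit gives 50%-abundance concentration (IC50).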
For orientation: The HiBiT peptide binds its large partner to form an active luciferase.

The mark [3] stands for this setting: qPCR panel, read-out: MYB CJ (decrease in CJ mRNA levels, IC50).
Where [4] appears, read: RT-qPCR, A673 or K562 cells, 24 hours treatment.
Where [5] appears, read: RT-qPCR, A673 or K562 cells, 24 hours treatment, read-out: MYB CJ (IC50, decrease in CJ mRNA).

pIC50: −log10 of the molar value. Where two headings read alike, the source gives them in different places.

The pIC50 is −log10 of the IC50, conventionally taken in molar units. Usually AC50 stands for the midpoint of the concentration-response curve, whichever way the signal moves.

Consider `Cn1cc2cc(-c3ccc4cc(N5CC[C@H](NCC6CC6)C5)cnc4n3)c(O)cc2n1` [Compound 314], for which the pIC50 in experiment [1] (setting [3]), in experiment [1] (setting [5]) and in experiment [2] was 6.00 to 7.00 each time. Further, the concentration at half-maximal activity (AC50) in experiment [1] (setting [4]) lay within 100 to 1000 nM.
`CN(C)C1CCN(c2cnc3nc(-c4cc5cn(C)nc5cc4O)ccc3c2)CC1` [Compound 316]: the pIC50 in experiment [1] (setting [3]), in experiment [1] (setting [5]) and in experiment [2] was 6.00 to 7.00 in each case. Also, the AC50 in experiment [1] (setting [4]) fell in the range of 100 to 1000 nM.
Take `CCN[C@@H]1CCN(c2cnc3nc(-c4cc5cn(C)nc5cc4O)cc(Cl)c3c2)C1` [Compound 317]: the pIC50 in experiment [1] (setting [3]), in experiment [1] (setting [5]) and in experiment [2] was greater than 7.00 in each case. Further, in experiment [1] (setting [4]), the AC50 was less than 100 nM.
Regarding `CCN[C@H]1CCN(c2cnc3nc(-c4cc5cn(C)nc5cc4O)cc(Cl)c3c2)C1` [Compound 318], the pIC50 in experiment [1] (setting [3]), in experiment [1] (setting [5]) and in experiment [2] was greater than 7.00 throughout. Besides, the AC50 in experiment [1] (setting [4]) is less than 100 nM.
`C[C@@H]1CN(c2cnc3nc(-c4ccc5nn(C)cc5c4)cc(Cl)c3c2)C[C@H](C)N1` [Compound 320, 4-chloro-6-[(3R,5S)-3,5-dimethylpiperazin-1-yl]-2-(2-methylindazol-5-yl)-1,8-naphthyridine]: the pIC50 in experiment [1] (setting [3]), in experiment [1] (setting [5]) and in experiment [2] was 5.00 to 6.00 throughout. Further, the concentration at half-maximal activity (AC50) in experiment [1] (setting [4]) lay in the range of 1000 to 10000 nM.
With `C[C@@H]1CN(c2cnc3nc(-c4cc(C#N)c5nn(C)cc5c4)cc(Cl)c3c2)C[C@H](C)N1` [Compound 325, 5-(4-chloro-6-((3R,5S)-3,5-dimethylpiperazin-1-yl)-1,8-naphthyridin-2-yl)-2-methyl-2H-indazole-7-carbonitrile 2,2,2-trifluoroacetate], the pIC50 in experiment [1] (setting [3]), in experiment [1] (setting [5]) and in experiment [2] was 6.00 to 7.00 each time. For the same compound, in experiment [1] (setting [4]), the half-maximal activity concentration (AC50) was 1000 to 10000 nM.
`Cc1cn2nc(-c3ccc4cc(N5C[C@@H](C)N[C@@H](C)C5)cnc4n3)cc(C)c2n1` [Compound 330]: the negative logarithm of the IC50 (pIC50) in experiment [1] (setting [3]), in experiment [1] (setting [5]) and in experiment [2] was 6.00 to 7.00 in each case. In experiment [1] (setting [4]), the AC50 fell in the range of 100 to 1000 nM.
`Cc1cn2nc(-c3cc(Cl)c4cc(N5C[C@@H](C)N[C@@H](C)C5)cnc4n3)cc(C)c2n1` [Compound 335, 4-chloro-2-{2,8-dimethylimidazo[1,2-b]478pyridazine-6-yl}-6-[(3R,5S)-3,5-dimethylpiperazin-1-yl]-1,8-naphthyridine]: the negative logarithm of the IC50 (pIC50) in experiment [1] (setting [3]), in experiment [1] (setting [5]) and in experiment [2] was 6.00 to 7.00 each time. Moreover, the half-maximal activity concentration (AC50) in experiment [1] (setting [4]) fell in the range of 100 to 1000 nM.
Turning to `Cc1cn2nc(-c3cc(Cl)c4cc(N5C[C@H](C)N[C@@H](C)C5)cnc4n3)cc(C)c2n1` [Compound 336], the pIC50 in experiment [1] (setting [3]), in experiment [1] (setting [5]) and in experiment [2] was greater than 7.00 each time. Moreover, in experiment [1] (setting [4]), the half-maximal activity concentration (AC50) is less than 100 nM.
For `CN[C@H]1CCN(c2cnc3nc(-c4cc(C)c5nc(C)cn5n4)cc(Cl)c3c2)C1` [Compound 340], the pIC50 in experiment [1] (setting [3]), in experiment [1] (setting [5]) and in experiment [2] was greater than 7.00 throughout. The AC50 in experiment [1] (setting [4]) is 100 to 1000 nM.
With `CN[C@@H]1CCN(c2cnc3nc(-c4cc(C)c5nc(C)cn5n4)cc(Cl)c3c2)C1` [Compound 341], the pIC50 in experiment [1] (setting [3]), in experiment [1] (setting [5]) and in experiment [2] was greater than 7.00 throughout. In addition, in experiment [1] (setting [4]), the AC50 is less than 100 nM.
As to `C[C@@H]1CN(c2cnc3nc(-c4cc5cn(C)nc5cc4O)ccc3c2)C[C@H](C)N1` [Compound 343], the pIC50 in experiment [1] (setting [3]), in experiment [1] (setting [5]) and in experiment [2] was 6.00 to 7.00 in each case. Also, the AC50 in experiment [1] (setting [4]) lay in the range of 100 to 1000 nM.
For `Cc1cn2nc(-c3cc(Cl)c4cc(N5CCC(N(C)C)CC5)cnc4n3)cc(C)c2n1` [Compound 348], the pIC50 in experiment [1] (setting [3]) is 6.00 to 7.00; in experiment [1] (setting [5]), 6.00 to 7.00; in experiment [2], greater than 7.00. Besides, the concentration at half-maximal activity (AC50) in experiment [1] (setting [4]) lay within 100 to 1000 nM.
On to `Cc1cn2nc(-c3cc(Cl)c4cc(N5CCC(N6CCC6)CC5)cnc4n3)cc(C)c2n1` [Compound 349], for which the pIC50 is 6.00 to 7.00 in experiment [1] (setting [3]), 6.00 to 7.00 in experiment [1] (setting [5]) and greater than 7.00 in experiment [2]. In addition, the concentration at half-maximal activity (AC50) in experiment [1] (setting [4]) was 100 to 1000 nM.
In the case of `Cc1cn2cc(-c3ccc4cc(N5C[C@@H](C)N[C@@H](C)C5)cnc4n3)cc(F)c2n1` [Compound 350], the pIC50 in experiment [1] (setting [3]), in experiment [1] (setting [5]) and in experiment [2] was 6.00 to 7.00 each time. Also, the AC50 in experiment [1] (setting [4]) was 1000 to 10000 nM.
As for `Cc1c(O)c(-c2cc(Cl)c3cc(N4CCNC5(CC5)C4)cnc3n2)cc2cn(C)nc12` [Compound 381], the negative logarithm of the IC50 (pIC50) in experiment [1] (setting [3]), in experiment [1] (setting [5]) and in experiment [2] was greater than 7.00 in each case. Also, in experiment [1] (setting [4]), the AC50 was less than 100 nM.
Turning to `Cc1cn2nc(-c3ccc4c(Cl)c(N5C[C@H](C)N[C@@H](C)C5)cnc4n3)cc(C)c2n1` [Compound 393, 5-chloro-2-{2,8-dimethylimidazo[1,2-b]pyridazin-6-yl}-6-[(3S,5S)-3,5-dimethylpiperazin-1-yl]-1,8-naphthyridine], the negative logarithm of the IC50 (pIC50) in experiment [1] (setting [3]), in experiment [1] (setting [5]) and in experiment [2] was greater than 7.00 throughout. Also, in experiment [1] (setting [4]), the AC50 is less than 100 nM.

Source of the values: US20250326748A1, “COMPOUNDS AND METHODS FOR MODULATING SPLICING” (REMIX THERAPEUTICS INC., priority 2022, published 2025).
